Assay results taken from patent US20080193505A1, “Nutritional Compositions For Modulating Vitamin C Bio-Availability” (Nestec S.A., priority 2005, published 2008).

Columns and labels:
SVCT1 = test: Real-time PCR in-vitro test of SVCT1 gene expression in primary keratinocytes; assay type: cell-based, human; conditions: for influence on expression: NHEK, 10 μM; for transcription of SVCT1 mRNA: summary statement in description
Method: Confluent primary keratinocytes (NHEK) were treated with a test compound or subsequently used for reverse transcription and real-time PCR analysis of SVCT1 and SVCT2. 18S-rRNA and GAPDH mRNA analysis served as endogenous control (housekeeping genes).
Primary adult epidermal keratinocytes (NHEK) for Cambrex Company (USA, Ordering number: CC-2501) have been used in this study. They were grown in KGM medium (Cambrex Company, USA, Ordering number: CC-3101 and CC-4131) on fibronectin and collagen type I coated plastic dishes (6- or 12-well plates) at 37° C. and 5% CO2 and expanded until passage 4 where they were used for further experiments.
NHEK cells at passage 4 were seated in 6 well plates at a density of 5000 cells/cm2, determined by means of a Thoma chamber under a light microscope. Cells were grown to 100% confluence within 5-6 days with medium changed every second day and were further used for in vitro-test for gene expression as depicted schematically in FIG. 1.
After removal of the supernatant the cells were rinsed twice with Dubellco's phophate buffered saline (PBS, Sigma, Germany), cells were lysed with 350 μl of a lysis buffer (Buffer RL, Qiagen AG, Basel, Switzerland) containing 1% β-mercaptoethanol (Sigma, USA) and total RNAs from cell lysates were extracted using the QIAshredder column and the RNeasy® Mini Kit (Qiagen AG, Basel, Switzerland). RNA quantification was performed using the Ribogreen® RNA quantitation Kit (Molecular Probes, USA) on 96-well plates and a fluorescence microplate reader (Spectra fluor plus F 129005, Tecan). The measurements were done in duplicate. The samples were diluted either 1:680 or 1:3400 in a final volume of 100 μl 1×TE buffer. Dilutions of the ribosomal RNA in a concentration of 1, 0.5, 0.1, 0.02, 0 μg/ml were used as standards and the measurement was performed by fluorimetry at 485 nm and 538 nm. RNA quantification was then calculated compared to the standard curve. Integrity of RNA was controlled using agarose gel electrophoresis (1% agarose in TBE: 90 mM Tris/HCl pH 8.0, 80 mM Boric acid, 3 mM EDTA in ddH2O).
For reverse transciption 2 μl pd(N)6 random hexamers (Amersham Biosciences, Art. n° 272080, England) and 1 μl dNTP (10 mM, Amersham Biosciences, Art. n° 272050, −60, −70, −80, England) were added to 2 μg RNA in nuclease-free water (Ambion, USA) in a final volume of 12 μl. After 5 min incubation at 65° C., samples were immediately placed on ice and quickly centrifuged. Then, 4 μl of 5× first strand buffer (250 mM NaCl, 0.1 mM EDTA, 1 mM DTT, 0.1% (V/v) NP-40, 50% (v/v) glycerol), 2 μl of dithiothreitol, 1 μl of RNase inhibitor and 1 μl of reverse transcriptase SuperScript II RNase H^− (SUPERase-In, 20 U/μl, Ambion, Art. n° 2694, USA) were added (final volume 20 μl). […] The sample was then kept in the freezer at −20° C. until further use.
The real-time PCR was performed according to the TaqMane method in 96 well plates (96WP) using assays-on-demand primer and probes (SVCT1: Hs00195277_ml, SVCT2:, Hs00192765_ml, 18S-rRNA: 4310893E, GAPDH: 4310884E Applied Biosystems, USA). Analysis was done in triplicate using a master mix (3.5×) which contained 43.7 μl TaqMan® 2× Universal PCR master mix (Applied Biosystems, USA), 4.4 μl assays-on-demand primers and probes, 21.9 μl nuclease-free water and 17.5 μl cDNA (87.5 ng=[…] per replicate). Triplicates of 25 μl master mix were loaded on a 96 well ABI PRISM reaction plate (Applied Biosystems, USA), covered with a transparent optical adhesive cover and centrifuged three times at 200 rpm for 1 min or until all air-bubbles had been removed. The PCR reaction was then performed in the ABI PRISMS 7000 Sequence Detection System (Applied Biosystems, USA) using the following temperature program: activation of the enzyme: 2 min at 50° C.; denaturation: 10 min at 95° C. and 40 cycles target amplification: 15 sec […] at 95° C. and 1 min extension at 60° C.

HaCaT cells = test: 14C-labelled ascorbic acid up-take in HaCaT cells (oxidative stress model); assay type: cell-based, human; conditions: for ascorbic acid up-take in the oxidative stress model: similar conditions as for FeCl3, data not shown

Oc1ccc(C2COc3cc(O)ccc3C2)cc1 (racemic) [equol, (R,S)-equol]
influence on expression (SVCT1): did not show any influence

[Cl][Fe]([Cl])[Cl] [FeCl3]
Vitamin C uptake by the cell (HaCaT cells; iron salt treated cells): enlarged

CC(=O)N[C@@H](CS)C(=O)O [N-acetyl-cysteine]
ascorbic acid up-take in the oxidative stress model (HaCaT cells): increase ascorbic acid up-take

[Cl-].[Cl-].[Zn+2] [ZnCl2]
transcription of SVCT1 mRNA (SVCT1): significantly down-regulated

CC1=C(/C=C/C(C)=C/C=C/C(C)=C/C(=O)O)C(C)(C)CCC1 [all-trans retinoic acid]
transcription of SVCT1 mRNA (SVCT1): significantly down-regulated

COc1cc(/C=C/C(=O)CC(=O)/C=C/c2ccc(O)c(OC)c2)ccc1O [curcumin]
influence on expression (SVCT1): did not show any influence

O=c1c(-c2ccc(O)cc2)coc2cc(O)cc(O)c12 [genistein]
influence on expression (SVCT1): did not show any influence

N[C@@H](CCC(=O)N[C@@H](CS)C(=O)NCC(=O)O)C(=O)O [glutathione]
ascorbic acid up-take in the oxidative stress model (HaCaT cells): increase ascorbic acid up-take

COc1ccc([C@@H]2CC(=O)c3c(O)cc(O)cc3O2)cc1O [hesperetin/hesperidin, hesperetin]
influence on expression (SVCT1): did not show any influence

NCCCC[C@H](N)C(=O)O [lysine]
ascorbic acid up-take in the oxidative stress model (HaCaT cells): increase ascorbic acid up-take

O=c1c(O)c(-c2ccc(O)c(O)c2)oc2cc(O)cc(O)c12 [quercitin, quercetin]
influence on expression (SVCT1): did not show any influence

C[S+]([O-])CCCCN=C=S (stereo not shown) [sulforaphane]
transcription of SVCT1 mRNA (SVCT1): significantly down-regulated

(−) epigallocatechin gallate [(−) epigallocatechin gallate (EGCg)]
influence on expression (SVCT1): did not show any influence
